These results are taken from US20260049072A1, “HETEROCYCLIC COMPOUND FOR INDUCING DEGRADATION OF MUTANT KRAS PROTEIN” (Astellas Pharma Inc., priority 2022, published 2026).

The first test concerns PA-TU-8902 cells. Nature of the test: Non-anchorage-dependent cell growth inhibition (spheroid 3D culture), PA-TU-8902. The following applies: Homo sapiens, PaTu 8902, 144 h; KRAS G12V mutant-positive, 3D spheroid, six days, CellTiter-Glo 2.0; read-out: PA-TU-8902 IC50. It counts as cell-based, human. The procedure: Test Example 3: Evaluation of Non-Anchorage-Dependent Cell Growth Inhibitory Activity on Human KRAS G12V Mutant-Positive Pancreatic Cancer Line PA-TU-8902, Human KRAS G12D Mutant-Positive Pancreatic Cancer Line AsPC-1 or Human KRAS G12C Mutant-Positive Pancreatic Cancer Line MIA PaCa-2
The non-anchorage-dependent cell growth inhibitory activities of subject compounds were evaluated by spheroid 3D cell culture.
PA-TU-8902 cells, AsPC-1 cells or MIA PaCa-2 cells (RIKEN BRC, RCB2094) were seeded at 36 µL/well on a low-cell-adhesive round bottom 384-well plate (Prime Surface: from Sumitomo Bakelite) to give 5×10^2 cells per well. The PA-TU-8902 cells were under the same conditions as in Test Example 1-1, and the AsPC-1 cells were under the same conditions as in Test Example 1-2. For the MIA PaCa-2 cells, RPMI-1640 medium containing 10% fetal bovine serum was used in the presence of 5% CO2 at 37° C.
The next day, the subject compounds (6-9 points having final concentrations in the range of 3 μM to 0.3 nM) and DMSO, which was the solvent for the subject compounds, as a negative control were diluted 100-fold with a fresh medium and were each added at 4 μL per well. After culturing in the presence of 5% CO2 at 37° C. for six days, CellTiter-Glo 2.0 (from Promega) was added at 20 μL per well. After stirring with a plate mixer (from FINEPCR) at normal temperature for an hour, the luminescent signals were measured with ARVO X3 (from PerkinElmer).
With the signaling value in treatment with DMSO taken as 0% inhibition and with the signaling value in the medium alone without cells taken as 100% inhibition, the 50% inhibition values (IC50) were calculated by Sigmoid-Emax model nonlinear regression analysis.
Take `CO[C@@H](C)COc1nc(OC2CN(C(=O)NCCN3CCCC3)C2)c2cc(C3CC3)c(-c3c(C)c(F)cc4[nH]ncc34)c(OCc3ccc(-c4cn([C@H](C(=O)N5C[C@H](O)C[C@H]5C(=O)N[C@@H](CO)c5ccc(-c6scnc6C)cc5)C(C)C)nn4)cc3)c2n1` (atropisomer, axis not shown) [Example 22]: the IC50 is 65 nM. Turning to `Cc1ncsc1-c1ccc([C@H](CO)NC(=O)[C@@H]2C[C@@H](O)CN2C(=O)[C@H](C(C)C)n2cc(-c3ccc(COc4c(-c5c(C)c(F)cc6[nH]ncc56)c(C5CC5)cc5c(N6CC(C#N)C6)nc(OC[C@@H]6CCN(C)C6)nc45)cc3)nn2)cc1` [Example 38], the IC50 came out at 177 nM. On to `CC[C@H](C)[C@@H](C(=O)N1C[C@H](O)C[C@H]1C(=O)N[C@@H](CO)c1ccc(-c2scnc2C)cc1)n1cc(-c2ccc(COc3c(-c4c(C)c(F)cc5[nH]ncc45)c(C4CC4)cc4c(O[C@H]5CCN(C(=O)NCCN(C)C)C5)nc(OC[C@H](C)OC)nc34)cc2)nn1` (single isomer, unassigned) [Example 28], for which the IC50 came out at 159 nM.

Consider `CO[C@@H](C)COc1cc(OC2CN(C(=O)N3CC[C@@H](N(C)C)C3)C2)c2cc(C3CC3)c(-c3c(C)c(F)cc4[nH]ncc34)c(OCc3ccc(-c4cn([C@H](C(=O)N5C[C@H](O)C[C@H]5C(=O)N[C@@H](CO)c5ccc(-n6cncn6)cc5)C(C)C)nn4)cc3)c2n1` (atropisomer, axis not shown) [Example 7], for which the IC50 was 81 nM. Still for that read-out and setting: with `Cc1ncsc1-c1ccc([C@H](CCO)NC(=O)[C@@H]2C[C@@H](O)CN2C(=O)[C@H](C(C)C)n2cc(-c3ccc(COc4c(-c5c(C)c(F)cc6[nH]ncc56)c(C5CC5)cc5c(NC6CN(C(=O)NCCN(C)C)C6)nc(OC6CCOCC6)nc45)cc3)nn2)cc1` [Example 39, (4R)-1-[(2S)-2-(4-{4-[({(7M)-6-cyclopropyl-4-[(1-{[2-(dimethylamino)ethyl]carbamoyl}azetidin-3-yl)oxy]-7-(6-fluoro-5-methyl-1H-indazol-4-yl)-2-[(oxan-4-yl)oxy]quinazolin-8-yl}oxy)methyl]phenyl}-1H-1,2,3-triazol-1-yl)-3-methylbutanoyl]-4-hydroxy-N-{(1S)-3-hydroxy-1-[4-(4-methyl-1,3-thiazol-5-yl)phenyl]propyl}-L-prolinamide] the figure was 52 nM; with `CO[C@@H](C)COc1nc(NC2CN(C(=O)OCCN(C)C)C2)c2cc(C3CC3)c(-c3c(C)c(F)cc4[nH]ncc34)c(OCc3ccc(-c4cn([C@H](C(=O)N5C[C@H](O)C[C@H]5C(=O)N[C@@H](CO)c5ccc(-c6scnc6C)cc5)C(C)C)nn4)cc3)c2n1` (atropisomer, axis not shown; (M)) [Example 34, 2-(dimethylamino)ethyl 3-({(7M)-6-cyclopropyl-7-(6-fluoro-5-methyl-H-indazol-4-yl)-8-{[4-(1-{(2S)-1-[(2S,4R)-4-hydroxy-2-({(1R)-2-hydroxy-1-[4-(4-methyl-1,3-thiazol-5-yl)phenyl]ethyl}carbamoyl)pyrrolidin-1-yl]-3-methyl-1-oxobutan-2-yl}-1H-1,2,3-triazol-4-yl)phenyl]methoxy}-2-[(2S)-2-methoxypropoxy]quinazolin-4-yl}amino)azetidine-1-carboxylate], 109 nM; with `CO[C@@H](C)COc1cc(OC2CN(C(=O)N3CC(CN(C)C)C3)C2)c2cc(C3CC3)c(-c3c(C)c(F)cc4[nH]ncc34)c(OCc3ccc(-c4cn([C@H](C(=O)N5C[C@H](O)C[C@H]5C(=O)N[C@@H](CO)c5ccc(N6CCOC6=O)cc5)C(C)C)nn4)cc3)c2n1` (atropisomer, axis not shown) [Example 8], 102 nM. With `CO[C@@H](C)COc1nc(NC2CN(C(=O)N3CCN(C)CC3)C2)c2cc(C3CC3)c(-c3c(C)c(F)cc4[nH]ncc34)c(OCc3ccc(-c4cn([C@H](C(=O)N5C[C@H](O)C[C@H]5C(=O)N[C@@H](CO)c5ccc(-n6cncn6)cc5)C(C)C)nn4)cc3)c2n1` (atropisomer, axis not shown) [Example 27], the IC50 came to 122 nM. Turning to `Cc1ncsc1-c1ccc([C@H](CO)NC(=O)[C@@H]2C[C@@H](O)CN2C(=O)[C@H](C(C)C)n2cc(-c3ccc(COc4c(-c5c(C)c(F)cc6[nH]ncc56)c(C5CC5)cc5c(OC6CN(C(=O)NCCN(C)C)C6)nc(OCC(C)(C)CN(C)C)nc45)cc3)nn2)cc1` [Example 36], the IC50 came out at 143 nM.

Regarding `Cc1ncsc1-c1ccc([C@H](CO)NC(=O)[C@@H]2C[C@@H](O)CN2C(=O)[C@H](C(C)C)n2cc(-c3ccc(COc4c(-c5c(C)c(F)cc6[nH]ncc56)c(C5CC5)cc5c(OC6CN(C(=O)NCCN(C)C)C6)nc(OC6CCN(CC(F)F)CC6)nc45)cc3)nn2)cc1` (atropisomer, axis not shown) [Example 31], the IC50 was 67 nM. On to `Cc1ncsc1-c1ccc([C@H](CO)NC(=O)[C@@H]2C[C@@H](O)CN2C(=O)[C@H](C(C)C)n2cc(-c3ccc(COc4c(-c5c(C)c(F)cc6[nH]ncc56)c(C5CC5)cc5c(N(C)C6CN(C(=O)O[C@H]7CCN(C)C7)C6)nc(OC6CCOCC6)nc45)cc3)nn2)cc1` (atropisomer, axis not shown) [Example 33], for which the IC50 stood at 103 nM. Take `CO[C@@H](C)COc1nc(N2CC[C@H]2C(N)=O)c2cc(C3CC3)c(-c3c(C)c(F)cc4[nH]ncc34)c(OCc3ccc(-c4cn([C@H](C(=O)N5C[C@H](O)C[C@H]5C(=O)N[C@@H](CN(C)C)c5ccc(-c6scnc6C)cc5)C(C)C)nn4)cc3)c2n1` (atropisomer, axis not shown) [Example 37]: the IC50 worked out at 78 nM.

In the case of `Cc1ncsc1-c1ccc([C@H](CO)NC(=O)[C@@H]2C[C@@H](O)CN2C(=O)[C@H](C(C)C)n2cc(-c3ccc(COc4c(-c5c(C)c(F)cc6[nH]ncc56)c(C5CC5)cc5c(OC6CN(C(=O)NCCO)C6)nc(OC6CCOCC6)nc45)cc3)nn2)cc1` [Example 16], the IC50 worked out at 261 nM. Same read-out and setting: the figure for `COC(C)(C)COc1cc(OC2CN(C(=O)N[C@H]3C[C@@H](N(C)C)C3)C2)c2cc(C3CC3)c(-c3c(C)c(F)cc4[nH]ncc34)c(OCc3ccc(-c4cn([C@H](C(=O)N5C[C@H](O)C[C@H]5C(=O)N[C@@H](CO)c5ccc(-n6cncn6)cc5)C(C)C)nn4)cc3)c2n1` (atropisomer, axis not shown) [Example 10] is 69 nM.

For the compound `CO[C@@H](C)COc1nc(NC2CN(C(=O)O[C@H]3C[C@@H](N(C)C)C3)C2)c2cc(C3CC3)c(-c3c(C)c(F)cc4[nH]ncc34)c(OCc3ccc(-c4cn([C@H](C(=O)N5C[C@H](O)C[C@H]5C(=O)N[C@@H](CO)c5ccc(-c6scnc6C)nc5)C(C)C)nn4)cc3)c2n1` (atropisomer, axis not shown) [Example 3], the IC50 turned out to be 160 nM. For `CO[C@@H](C)COc1nc(N(C)C2CN(C(=O)CCCN(C)C)C2)c2cc(C3CC3)c(-c3c(C)c(F)cc4[nH]ncc34)c(OCc3ccc(-c4cn([C@H](C(=O)N5C[C@H](O)C[C@H]5C(=O)N[C@@H](CO)c5ccc(-c6scnc6C)cc5)C(C)C)nn4)cc3)c2n1` (atropisomer, axis not shown) [Example 24], the IC50 turned out to be 125 nM. For the compound `Cc1c(F)cc2[nH]ncc2c1-c1c(C2CC2)cc2c(OC3CN(C(=O)NCCN(C)C)C3)nc(OC3CCOCC3)nc2c1OCc1ccc(-c2cn([C@H](C(=O)N3C[C@H](O)C[C@H]3C(=O)N[C@@H](CO)c3ccc(-n4cccn4)cc3)C(C)C)nn2)cc1` [Example 30], the IC50 was 235 nM. On to `Cc1c(F)cc2[nH]ncc2c1-c1c(C2CC2)cc2c(NC3CN(C(=O)NCCN(C)C)C3)nc(OC[C@@H]3CCCO3)nc2c1OCc1ccc(-c2cn([C@H](C(=O)N3C[C@H](O)C[C@H]3C(=O)N[C@@H](CO)c3ccc(-n4cncn4)cc3)C(C)C)nn2)cc1` (atropisomer, axis not shown) [Example 32], for which the IC50 came to 105 nM.

The same test, now with this note: KRAS G12V mutant-positive, 3D spheroid, six days, CellTiter-Glo 2.0; read-out: PA-TU-8902 IC50.
On to `CO[C@@H](C)COc1cc(OC2CN(C(=O)NCCN(C)C)C2)c2cc(C3CC3)c(-c3c(C)c(F)cc4[nH]ncc34)c(OCc3ccc(-c4cn([C@H](C(=O)N5C[C@H](O)C[C@H]5C(=O)N[C@@H](CO)c5ccc(-c6scnc6C)cc5)C(C)C)nn4)cc3)c2n1` [Example 43, (4R)-1-[(2S)-2-(4-{4-[({(7M)-6-cyclopropyl-4-[(1-{[2-(dimethylamino)ethyl]carbamoyl}azetidin-3-yl)oxy]-7-(6-fluoro-5-methyl-1H-indazol-4-yl)-2-[(2S)-2-methoxypropoxy]quinolin-8-yl}oxy)methyl]phenyl}-1H-1,2,3-triazol-1-yl)-3-methylbutanoyl]-4-hydroxy-N-{(1R)-2-hydroxy-1-[4-(4-methyl-1,3-thiazol-5-yl)phenyl]ethyl}-L-prolinamide], for which the IC50 amounted to 61 nM.
